According to patent US11285219B2, “Peptide-oligourea hybrid compounds” (UREKA SARL, priority 2019, dated 2022):
“Also recorded” adds a separate entry of the source. Numbered stars: 1 amine (or outer) side, 2 acyl side, 3 side chain; on linkers, the order of the positions; unused ones are H or OH. Bridge positions count the residues as written; N and C are the ends. Peptide text beside a SMILES is read from it. I, II: the chains in the order shown. X3 = C[C@@H](CNC(=O)[*:1])NC(=O)NC[C@H](Cc1ccc(O)cc1)NC(=O)NC[C@H](C)N[*:2]

How the values were obtained:
[1] = target: T1, mouse GLP-1 receptor endogenously expressed in βTC6 cells (Mus musculus, UniProt O35659); experiment: cAMP production functional assay (HTRF), agonist activity at GLP-1R; type: cell-based; details: for Potency (%), percentage of potency (cAMP production) compared to GLP-1-G^2: Table 2; for Potency (%), percentage of potency compare to GLP-1-G^2: cAMP production, Table 1; for EC50: receptor-mediated cAMP production, βTC6 cells, read-out: EC50 (nM), GLP-1R potency
T1 construct: host or cells: βTC6 cells
T1 sequence (O35659 22-463): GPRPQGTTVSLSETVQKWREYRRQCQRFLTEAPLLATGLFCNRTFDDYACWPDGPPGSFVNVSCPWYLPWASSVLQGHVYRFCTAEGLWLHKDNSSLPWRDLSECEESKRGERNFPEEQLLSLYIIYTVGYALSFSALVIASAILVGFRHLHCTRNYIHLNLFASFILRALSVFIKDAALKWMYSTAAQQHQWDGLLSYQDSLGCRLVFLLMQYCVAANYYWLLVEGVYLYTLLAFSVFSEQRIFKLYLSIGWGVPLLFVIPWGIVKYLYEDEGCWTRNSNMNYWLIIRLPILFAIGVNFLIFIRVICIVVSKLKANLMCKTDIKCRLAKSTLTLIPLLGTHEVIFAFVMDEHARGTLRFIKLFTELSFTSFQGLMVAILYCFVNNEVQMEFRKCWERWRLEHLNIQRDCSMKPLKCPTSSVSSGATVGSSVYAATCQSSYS
Method: The agonistic activity of these hybrids were obtained by functional assays using cells expressing the […] and by measuring the receptor-mediated cAMP produced (see supporting information).
In vitro pharmacology (EC50). […] Following incubation, the cells were lysed and the fluorescence acceptor (D2-labeled cAMP) and fluorescence donor (anti-cAMP antibody labeled with europium cryptate) were added.

NEP 24.11 = NEP 24.11 (Homo sapiens, UniProt P08473); experiment: NEP 24.11 enzymatic degradation assay; details: pH 8
Method: Enzymatic and mouse plasma degradation studies.
Enzymatic degradation (NEP 24.11). Stock solutions of the oligomers were prepared at a concentration of 400 μM in a solution of 50 mM HEPES buffer, 50 mM NaCl, 0.05% Tween-80, pH 8.0. Stock solution of NEP 24.11 was prepared at a concentration of 100 μg/mL in water. Stability of oligomers to NEP 24.11 was assessed by conducting protease reaction in a 96-well plates at 20° C. […] Each compound was also incubated in the absence of the enzyme (12 μL of HEPES buffer and 38 μL of oligomer). At the indicated time (1, 2, 4, 6 and 22 hours) an aliquot of 10 μL was removed from each experimental reaction and pipetting into 100 μL of 1% TFA solution to quench the reaction, (t=0 min was determined using the reaction without enzyme). A portion of the quenched reaction solution was analyzed by HPLC. The time course of peptide degradation was determined by integrating the area of each peak in a series of HPLC traces.

normal mice (C57BL/6J) = experiment: Blood glucose experiment in healthy mice; type: in vivo, mouse; parameters: key to In vivo activity (indicator): + = active; +++: + + + = more active; details: for effect on blood glucose concentration: fed normal mice, 5 μg/mouse i.v., monitored 6 h
Method: In the first study, we evaluated the effect of the analogues on the blood glucose concentration of normal mice (FIG. 4). The fed mice were treated with the analogues and their blood glucose concentration was monitored before and after dosing for 6 h. […] Indeed, a decrease of blood glucose concentration is observed after 30 min and the effect is preserved for 4 h after dosing.
Blood glucose experiment in healthy mice. After the acclimation period (at least 5 days), mice (male C57BL/6J mice (Charles River laboratories) (8 weeks old, 20-25 g)) were randomized into 10 groups (n=3/group) according to their body weight. They were acutely treated via i.v. route at 10 AM (5 μg/mouse). Blood glucose was measured before dosing and at 30 min, 1, 2, 4, 6 h after dosing in fed conditions.

Sequence of NEP 24.11 (P08473 whole entry): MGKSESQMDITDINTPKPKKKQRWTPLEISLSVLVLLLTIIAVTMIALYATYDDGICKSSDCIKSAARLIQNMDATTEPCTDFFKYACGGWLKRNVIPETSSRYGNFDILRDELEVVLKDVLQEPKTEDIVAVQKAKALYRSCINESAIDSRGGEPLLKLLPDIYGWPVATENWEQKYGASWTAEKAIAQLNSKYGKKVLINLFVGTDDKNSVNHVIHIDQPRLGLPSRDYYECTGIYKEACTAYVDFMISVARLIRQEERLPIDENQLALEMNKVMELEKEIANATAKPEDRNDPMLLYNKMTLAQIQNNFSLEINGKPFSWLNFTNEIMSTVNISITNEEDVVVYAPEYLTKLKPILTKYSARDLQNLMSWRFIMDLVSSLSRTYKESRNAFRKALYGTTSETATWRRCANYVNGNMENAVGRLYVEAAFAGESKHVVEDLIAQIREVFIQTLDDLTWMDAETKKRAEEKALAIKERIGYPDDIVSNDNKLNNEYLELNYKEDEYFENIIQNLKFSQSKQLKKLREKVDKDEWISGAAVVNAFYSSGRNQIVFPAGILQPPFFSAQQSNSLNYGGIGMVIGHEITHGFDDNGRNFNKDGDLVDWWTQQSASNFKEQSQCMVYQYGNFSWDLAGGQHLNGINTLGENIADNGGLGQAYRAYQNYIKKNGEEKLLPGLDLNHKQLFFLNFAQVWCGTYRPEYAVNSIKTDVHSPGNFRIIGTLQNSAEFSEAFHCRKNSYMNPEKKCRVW

SMILES	loss of affinity with GLP-1R compared to the native peptide [1]	Potency (%), percentage of potency (cAMP production) compared to GLP-1-G^2 [1]	Potency (%), percentage of potency compare to GLP-1-G^2 [1]	EC50 [1]	half-life at […] (NEP 24.11)	effect on blood glucose concentration (normal mice (C57BL/6J))	In vivo activity (indicator) (normal mice (C57BL/6J); blood glucose, mice, i.v.)
CC[C@H](C)[C@H](NC(=O)[C@H](Cc1ccccc1)NC(=O)[C@H](CCC(=O)O)NC(=O)[C@H](CCCCN)NC(=O)[C@H](C)NC(=O)[C@H](C)NC(=O)[C@H](CCC(N)=O)NC(=O)CNC(=O)[C@H](CCC(=O)O)NC(=O)[C@H](CC(C)C)NC(=O)[C@H](Cc1ccc(O)cc1)NC(=O)NC[C@H](C)NC(=O)NC[C@H](C)NC(=O)N[C@@H](CNC(=O)[C@H](CO)NC(=O)[C@@H](NC(=O)[C@H](Cc1ccccc1)NC(=O)[C@@H](NC(=O)CNC(=O)[C@H](CCC(=O)O)NC(=O)CNC(=O)[C@@H](N)Cc1c[nH]cn1)[C@@H](C)O)[C@@H](C)O)CC(=O)O)C(=O)N[C@@H](C)C(=O)N[C@@H](Cc1c[nH]c2ccccc12)C(=O)N[C@@H](CC(C)C)C(=O)N[C@H](C(=O)N[C@@H](CCCCN)C(=O)NCC(=O)N[C@@H](CCCNC(=N)N)C(=O)NCC(N)=O)C(C)C [Compound 2, GG2[D^UαA^UA^U]^9-12]	over a hundred fold loss	2%	2%	13 nM	3.6 h	no activity; also recorded: no effect	–
CC[C@H](C)[C@@H](CNC(=O)N[C@@H](C)CNC(=O)N[C@@H](CC(C)C)C(=O)N[C@H](C(=O)N[C@@H](CCCCN)C(=O)NCC(=O)N[C@@H](CCCNC(=N)N)C(=O)NCC(N)=O)C(C)C)NC(=O)N[C@@H](CNC(=O)[C@H](CCC(=O)O)NC(=O)[C@H](CCCCN)NC(=O)[C@H](C)NC(=O)[C@H](C)NC(=O)[C@H](CCC(N)=O)NC(=O)CNC(=O)[C@H](CCC(=O)O)NC(=O)[C@H](CC(C)C)NC(=O)[C@H](Cc1ccc(O)cc1)NC(=O)[C@H](CO)NC(=O)[C@H](CO)NC(=O)[C@@H](NC(=O)[C@H](CC(=O)O)NC(=O)[C@H](CO)NC(=O)[C@@H](NC(=O)[C@H](Cc1ccccc1)NC(=O)[C@@H](NC(=O)CNC(=O)[C@H](CCC(=O)O)NC(=O)CNC(=O)[C@@H](N)Cc1c[nH]cn1)[C@@H](C)O)[C@@H](C)O)C(C)C)Cc1ccccc1 [Compound 16, GG2[F^UαI^UA^U]^22-25]	over a hundred fold loss	0.4%	0.4%	62 nM	1.8 h	no activity; also recorded: no effect	–
CC[C@H](C)[C@H](NC(=O)[C@H](Cc1ccccc1)NC(=O)[C@H](CCC(=O)O)NC(=O)[C@H](CCCCN)NC(=O)[C@H](C)NC(=O)[C@H](C)NC(=O)[C@H](CCC(N)=O)NC(=O)CNC(=O)[C@H](CCC(=O)O)NC(=O)NC[C@H](C)NC(=O)NC[C@H](Cc1ccc(O)cc1)NC(=O)NC[C@H](C)NC(=O)[C@@H](NC(=O)[C@H](CC(=O)O)NC(=O)[C@H](CO)NC(=O)[C@@H](NC(=O)[C@H](Cc1ccccc1)NC(=O)[C@@H](NC(=O)CNC(=O)[C@H](CCC(=O)O)NC(=O)CNC(=O)[C@@H](N)Cc1c[nH]cn1)[C@@H](C)O)[C@@H](C)O)C(C)C)C(=O)N[C@@H](C)C(=O)N[C@@H](Cc1c[nH]c2ccccc12)C(=O)N[C@@H](CC(C)C)C(=O)N[C@H](C(=O)N[C@@H](CCCCN)C(=O)NCC(=O)N[C@@H](CCCNC(=N)N)C(=O)NCC(N)=O)C(C)C [Compound 5, GG2[A^UY^UA^U]^11-14] (I: EGQAAKEFIAWLVKGRG-NH2 / II: H-HGEGTFTSDV; linker I:N-II:C via X3)	–	15%	15%	–	2.9 h	efficacy but no improvement	+
